These results are taken from publication PMC10254235, “Design, Synthesis, and Anti-Cervical Cancer and Reversal of Tumor Multidrug Resistance Activity of Novel Nitrogen-Containing Heterocyclic Chalcone Derivatives” (Molecules, 2023).

Each structure is given as a SMILES string. Where two headings read alike, the source gives them in different places.

Assay type in all cases: cell-based, human
One test deals with HeLa cells. The test is described as follows: MTT antiproliferative assay, HeLa cells. The note with it: 48 h. Here is the method:
(§1) HeLa and SiHa cell lines were obtained from the Procell Life Science Technology Co., Ltd. (Wuhan, China); H8 cell line was obtained from the Shanghai HonSun Biological Technology Co., Ltd. (Shanghai, China); HUVEC cell line was obtained from the Saibaikang (Shanghai) Biotechnology Co., Ltd. (Shanghai, China); HeLa/DDP cell line was obtained from the Guangzhou Jenniobio Biotechnology Co., Ltd. (Guangzhou, China). HeLa, SiHa, H8, and HeLa/DDP cells were cultured in DMEM medium (HyClone). The VEGF of 50 ng/mL was used as the promoter of the VEGFR-2 receptor on HUVEC cell membrane surfaces, and their inhibitory effects on VEGFR-2 were determined. All the mediums were supplemented with 10% FBS (HyClone, GE Healthcare, Australia). Cells were maintained at subconfluency at 37 °C in humidified air containing 5% CO2. The cells were monitored daily and maintained at 80% cell density. All compounds tested were dissolved in DMSO and then diluted by the culture medium before the treatment of cultured cells. Identification reports are available for all types of cell lines involved in this study.
(§2) The cytotoxicity of the target compounds were measured in vitro using the MTT assay. Cells grown in the logarithmic phase were counted and seeded in 96-well cell culture plates (5 × 10^3 cells per well) for 24 h to allow attachment of cells to the wall of the plate. […] Next, 20 μL of 5 mg.mL^−1 MTT solution was added to each well and cultured for 4 h. The old solution was discarded, replaced with 150 μL DMSO solution per well, and shaken for 10 min. The OD value was measured under 490 nm, and the inhibition rate was calculated. The nonlinear regression fitting of the cell growth rate was carried out using SPSS 23.0 software, and the IC50 of the compound was calculated. […] There were 6 compound holes in each group, and the experimental results were presented as the average of 3 experiments. A complete medium containing only cells was used as the blank control, whereas a complete medium without cells was the negative control group. Cisplatin and sorafenib were utilized as the positive control group, and the target compound was the experimental intervention group.

A further test concerns SiHa cells. Put plainly: MTT antiproliferative assay, SiHa cells. The conditions noted are these: 48 h, mean ± SD. As for the experimental part:
as §1, §2

The test system of the next test is H8 cells. Put plainly: MTT cytotoxicity assay, normal cervical epithelial H8 cells. The note with it: 48 h, mean ± SD. Here is the method:
as §1, §2

In the next test the test system is HeLa/DDP cells. Put plainly: MTT assay, cisplatin-resistant HeLa/DDP cells. The note with it: single agent; for RI (resistance index): HeLa/DDP versus HeLa; for IC50: cisplatin-resistant HeLa/DDP cells, 48 h, read-out: 48h IC50 HeLa/DDP. In general terms: Tetrazolium assays rely on reduction of a dye to a coloured formazan, in cell work by metabolically active cells.

Setting [1] is: Homo sapiens, MTT, mean ± SD, read-out: 48h IC50 HeLa.
The mark [2] stands for this setting: Homo sapiens, single agent, read-out: 48h IC50 HeLa (Table 4).

Protocol for HeLa/DDP cells: The cytotoxicity of the target compounds were measured in vitro using the MTT assay. Cells grown in the logarithmic phase were counted and seeded in 96-well cell culture plates (5 × 10^3 cells per well) for 24 h to allow attachment of cells to the wall of the plate. […] Next, 20 μL of 5 mg.mL^−1 MTT solution was added to each well and cultured for 4 h. The old solution was discarded, replaced with 150 μL DMSO solution per well, and shaken for 10 min. The OD value was measured under 490 nm, and the inhibition rate was calculated. The nonlinear regression fitting of the cell growth rate was carried out using SPSS 23.0 software, and the IC50 of the compound was calculated. […] A complete medium containing only cells was used as the blank control, whereas a complete medium without cells was the negative control group.
To reduce the adverse reactions caused by the fixation of drug resistance reversal agents, the concentration that reduces the proliferation rate of tumor cells by less than 10% was selected.

For the compound `COc1cc(O)c(C(=O)/C=C/c2ccc(CN3CCC(O)CC3)cc2)cc1CN1CCC(O)CC1` [6a, (E)-1-(2-hydroxy-5-((4-hydroxypiperidin-1-yl)methyl)-4-methoxyphenyl)-3-(4-((4-hydroxypiperidin-1-yl)methyl)phenyl)prop-2-en-1-one], the IC50 with HeLa cells (setting [1]) is 72.9 ± 0.12 µM; in the test on SiHa cells (Homo sapiens) it was over 100 µM; with H8 cells (Homo sapiens) it was over 100 µM.

With `COc1cc(O)c(C(=O)/C=C/c2ccc(CN3CCC(OC)CC3)cc2)cc1CN1CCC(O)CC1` [6b, (E)-1-(2-hydroxy-5-((4-hydroxypiperidin-1-yl)methyl)-4-methoxyphenyl)-3-(4-((4-methoxypiperidin-1-yl)methyl)phenyl)prop-2-en-1-one], the results for the IC50 with HeLa cells (setting [1]), with SiHa cells (Homo sapiens) and in the test on H8 cells (Homo sapiens) were 40.13 ± 0.11 µM, 57.1 ± 1.3 µM and 82.5 ± 5.21 µM, respectively.

For `COc1cc(O)c(C(=O)/C=C/c2ccc(CN3CCCC3)cc2)cc1CN1CCC(O)CC1` [6c, (E)-1-(2-hydroxy-5-((4-hydroxypiperidin-1-yl)methyl)-4-methoxyphenyl)-3-(4-(pyrrolidin-1-ylmethyl)phenyl)prop-2-en-1-one], the results for the IC50 with HeLa cells (setting [1]), in the test on SiHa cells (Homo sapiens) and with H8 cells (Homo sapiens) were 32.17 ± 0.14 µM, 44.49 ± 0.38 µM and 34 ± 4.14 µM, respectively.

With `COc1cc(O)c(C(=O)/C=C/c2ccc(CN3CCN(C)CC3)cc2)cc1CN1CCC(O)CC1` [6d, (E)-1-(2-hydroxy-5-((4-hydroxypiperidin-1-yl)methyl)-4-methoxyphenyl)-3-(4-((4-methylpiperazin-1-yl)methyl)phenyl)prop-2-en-1-one], the IC50 with HeLa cells (setting [1]), with SiHa cells (Homo sapiens) and with H8 cells (Homo sapiens) was over 100 µM each time.

On to `COc1cc(O)c(C(=O)/C=C/c2ccc(CN3CCOCC3)cc2)cc1CN1CCC(O)CC1` [6e, (E)-1-(2-hydroxy-5-((4-hydroxypiperidin-1-yl)methyl)-4-methoxyphenyl)-3-(4-(morpholinomethyl)phenyl)prop-2-en-1-one], for which the IC50 in the test with HeLa cells (setting [1]) was 56.7 ± 0.59 µM; in the test on SiHa cells (Homo sapiens), over 100 µM; in the test on H8 cells (Homo sapiens), 75.69 ± 0.49 µM.

For the compound `COc1cc(O)c(C(=O)/C=C/c2ccc(CN3CCC(C)CC3)cc2)cc1CN1CCC(OC)CC1` [6g, (E)-1-(2-hydroxy-4-methoxy-5-((4-methoxypiperidin-1-yl)methyl)phenyl)-3-(4-((4-methylpiperidin-1-yl)methyl)phenyl)prop-2-en-1-one], the IC50 came out at 47.05 ± 0.11 µM in the test with HeLa cells (setting [1]), 85.04 ± 0.47 µM in the test on SiHa cells (Homo sapiens) and 72.9 ± 1.08 µM with H8 cells (Homo sapiens).

For the compound `COc1cc(O)c(C(=O)/C=C/c2ccc(CN3CCOCC3)cc2)cc1CN1CCC(OC)CC1` [6h, (E)-1-(2-hydroxy-4-methoxy-5-((4-methoxypiperidin-1-yl)methyl)phenyl)-3-(4-(morpholinomethyl)phenyl)prop-2-en-1-one], the IC50 in the test on HeLa cells (setting [1]), in the test on SiHa cells (Homo sapiens) and in the test with H8 cells (Homo sapiens) was over 100 µM throughout.

For `COc1cc(O)c(C(=O)/C=C/c2ccc(CN3CCC(O)CC3)cc2)cc1CN1CCCC1` [6i, (E)-1-(2-hydroxy-4-methoxy-5-(pyrrolidin-1-ylmethyl)phenyl)-3-(4-((4-hydroxypiperidin-1-yl)methyl)phenyl)prop-2-en-1-one], the results for the IC50 in the test with HeLa cells (setting [1]), in the test on SiHa cells (Homo sapiens) and in the test with H8 cells (Homo sapiens) were 46.15 ± 0.35 µM, 77.02 ± 0.22 µM and 71.64 ± 0.48 µM, respectively.

For `COc1cc(O)c(C(=O)/C=C/c2ccc(CN3CCOCC3)cc2)cc1CN1CCCC1` [6j, (E)-1-(2-hydroxy-4-methoxy-5-(pyrrolidin-1-ylmethyl)phenyl)-3-(4-(morpholinomethyl)phenyl)prop-2-en-1-one], the IC50 in the test on HeLa cells (setting [1]) was determined as 37.74 ± 0.22 µM; in the test with SiHa cells (Homo sapiens), 47.65 ± 0.19 µM; in the test with H8 cells (Homo sapiens) it was 58.46 ± 0.19 µM.

`COc1cc(O)c(C(=O)/C=C/c2ccc(CN3CCC(OC)CC3)cc2)cc1CN1CCCC1` [6l, (E)-1-(2-hydroxy-4-methoxy-5-(pyrrolidin-1-ylmethyl)phenyl)-3-(4-((4-methoxypiperidin-1-yl)methyl)phenyl)prop-2-en-1-one]: the IC50 with HeLa cells (setting [1]), in the test on SiHa cells (Homo sapiens) and in the test with H8 cells (Homo sapiens) was over 100 µM throughout.

Regarding `COc1cc(O)c(C(=O)/C=C/c2ccc(CN3CCN(C)CC3)cc2)cc1CN1CCCC1` [6m, (E)-1-(2-hydroxy-4-methoxy-5-(pyrrolidin-1-ylmethyl)phenyl)-3-(4-((4-methylpiperazin-1-yl)methyl)phenyl)prop-2-en-1-one], the IC50 in the test with HeLa cells (setting [1]) was 52.43 ± 0.42 µM; in the test with SiHa cells (Homo sapiens), over 100 µM; in the test with H8 cells (Homo sapiens) it was over 100 µM.

Turning to `COc1cc(O)c(C(=O)/C=C/c2ccc(CN3CCOCC3)cc2)cc1CN1CCOCC1` [6n, (E)-1-(2-hydroxy-4-methoxy-5-(morpholinomethyl)phenyl)-3-(4-(morpholinomethyl)phenyl)prop-2-en-1-one], the IC50 with HeLa cells (setting [1]), with SiHa cells (Homo sapiens) and in the test on H8 cells (Homo sapiens) was over 100 µM throughout.

For the compound `COc1cc(O)c(C(=O)/C=C/c2ccc(CN3CCC(OC)CC3)cc2)cc1CN1CCOCC1` [6p, (E)-1-(2-hydroxy-4-methoxy-5-(morpholinomethyl)phenyl)-3-(4-((4-methoxypiperidin-1-yl)methyl)phenyl)prop-2-en-1-one], the results for the IC50 with HeLa cells (setting [1]), with SiHa cells (Homo sapiens) and in the test with H8 cells (Homo sapiens) were 79.9 ± 2.4 µM, 66.04 ± 0.49 µM and 85.4 ± 3.92 µM, respectively.

`COc1cc(O)c(C(=O)/C=C/c2ccc(CN3CCOCC3)cc2)cc1CN1CCC(C)CC1` [6q, (E)-1-(2-hydroxy-4-methoxy-5-((4-methylpiperidin-1-yl)methyl)phenyl)-3-(4-(morpholinomethyl)phenyl)prop-2-en-1-one]: the IC50 is 88.17 ± 0.72 µM in the test with HeLa cells (setting [1]), over 100 µM with SiHa cells (Homo sapiens) and over 100 µM in the test on H8 cells (Homo sapiens).

For the compound `COc1cc(O)c(C(=O)/C=C/c2ccc(CN3CCC(C)CC3)cc2)cc1CN1CCC(C)CC1` [6r, (E)-1-(2-hydroxy-4-methoxy-5-((4-methylpiperidin-1-yl)methyl)phenyl)-3-(4-((4-methylpiperidin-1-yl)methyl)phenyl)prop-2-en-1-one], the results for the IC50 in the test with HeLa cells (setting [1]), in the test with SiHa cells (Homo sapiens) and in the test on H8 cells (Homo sapiens) were 25.5 ± 1.21 µM, 36.6 ± 1.94 µM and 42.2 ± 0.8 µM, respectively.

With `COc1cc(O)c(C(=O)/C=C/c2ccc(CN3CCCC3)cc2)cc1CN1CCC(C)CC1` [6s, (E)-1-(2-hydroxy-4-methoxy-5-((4-methylpiperidin-1-yl)methyl)phenyl)-3-(4-(pyrrolidin-1-ylmethyl)phenyl)prop-2-en-1-one], the IC50 in the test on HeLa cells (setting [1]) was 30.9 ± 0.39 µM; in the test on SiHa cells (Homo sapiens), 36.1 ± 1.71 µM; with H8 cells (Homo sapiens) it was 35.4 ± 0.61 µM.

With `COc1cc(O)c(C(=O)/C=C/c2ccc(CN3CCN(C)CC3)cc2)cc1CN1CCC(C)CC1` [6t, (E)-1-(2-hydroxy-4-methoxy-5-((4-methylpiperidin-1-yl)methyl)phenyl)-3-(4-((4-methylpiperazin-1-yl)methyl)phenyl)prop-2-en-1-one], the IC50 with HeLa cells (setting [1]) was 30.9 ± 0.18 µM; in the test with SiHa cells (Homo sapiens), 36 ± 6.3 µM; in the test on H8 cells (Homo sapiens), 42.11 ± 0.31 µM.

Take `COc1cc(O)c(C(=O)/C=C/c2ccc(CN3CCC(C)CC3)cc2)cc1CN1CCN(C)CC1` [6u, (E)-1-(2-hydroxy-4-methoxy-5-((4-methylpiperazin-1-yl)methyl)phenyl)-3-(4-((4-methylpiperidin-1-yl)methyl)phenyl)prop-2-en-1-one]: the IC50 with HeLa cells (setting [1]) turned out to be 28.01 ± 0.14 µM; with SiHa cells (Homo sapiens), 28.2 ± 0.5 µM; in the test on H8 cells (Homo sapiens), 42.5 ± 0.85 µM.

`N.N.[Cl][Pt][Cl]` [Cisplatin, reference compound]: the IC50 in the test with HeLa cells (MTT, mean ± SD, read-out: 48h IC50 HeLa) was 13.6 ± 1.63 µM; in the test on HeLa cells (single agent, read-out: 48h IC50 HeLa (Table 4)), 13.6 ± 1.63 µM; in the test on SiHa cells, 21.6 ± 2.9 µM; in the test on H8 cells, 24.8 ± 1.37 µM; in the test with HeLa/DDP cells, 100 ± 7.94 µM. For the same compound, the “RI (resistance index)” value with HeLa/DDP cells is 7.36.

As for `COc1cccc2c1C(=O)c1c(O)c3c(c(O)c1C2=O)C[C@@](O)(C(=O)CO)C[C@@H]3O[C@H]1C[C@H](N)[C@H](O)[C@H](C)O1` [Doxorubicin], the IC50 with HeLa cells (setting [2]) was determined as 10.6 ± 0.5 µM; with HeLa/DDP cells (Homo sapiens), 41.6 ± 2.05 µM. For the same compound, in the test on HeLa/DDP cells, the “RI (resistance index)” value is recorded as 3.93.

`CC(=O)O[C@H]1C(=O)[C@@]2(C)[C@H]([C@H](OC(=O)c3ccccc3)[C@]3(O)C[C@H](OC(=O)[C@H](O)[C@@H](NC(=O)c4ccccc4)c4ccccc4)C(C)=C1C3(C)C)[C@]1(OC(C)=O)CO[C@@H]1C[C@@H]2O` [Paclitaxel, reference compound]: the IC50 came to 20.1 ± 1.05 µM with HeLa cells (setting [2]) and 125 ± 5.3 µM in the test with HeLa/DDP cells (Homo sapiens).
